The text below walks through data of PMC5813016 (Nature Communications, 2018).

“Also recorded” adds a separate entry of the source.

One data set has as its target human D3R (Homo sapiens, UniProt P35462). The experiment in a line: Human D3R radioligand binding ([3H]-7-OH-DPAT, CHO).
Data set [1] deals with human D1R / β-arrestin2-GFP in U2OS cells. As to the kind of experiment: β-arrestin2-GFP membrane recruitment, TIRFM, U2OS cells. The class given is cell-based. The conditions noted are these: U2OS cells expressing human D1R, 1 μM agonist, 10 min. The method, then:
This stable U2OS cell line was generated, obtained and licensed from Professor Marc G. Caron, Duke University, Durham, NC, USA. […] The U2OS cells were cultured under antibiotic selection in DMEM (Invitrogen) containing 25 mM glucose and 4 mM L-glutamine supplemented with 10% dialyzed fetal bovine serum, […] Geneticin, […] Zeocin, and 100 U/ml penicillin/streptomycin (all from Invitrogen) and incubated at 37 °C in 5% CO2. Cells from passage four through ten were used in these experiments. Cells were grown in 35 mm glass bottomed imaging dishes (Mattek Corp). Cells were incubated for 1 h in serum free media (SFM) and subsequently treated for 10 min at 37 °C with 0.01% DMSO (control) or 1 μM of all test compounds dissolved in SFM followed by immediate fixation on ice with a 4% paraformaldehyde/1× phosphate buffered saline solution.
TIRFM was used to visualize proteins at the plasma membrane of cells such as D1 receptors and recruited β-arrestin-GFP[65]. All images were captured using a Zeiss PS.1 Elyra Superresolution fluorescence microscope equipped with TIRF module.
Custom image analysis scripts were developed to automatically identify and quantify β-arrestin membrane recruitment. We employed standard methods of image processing based on grayscale morphology. First 16bit images were transformed to 8bit range via square root transformation to improve identification of punctate structure of varying intensity. Images were smoothed with small Gaussian kernel to eliminate noise (h = 2px, σ = 1). At the next step images were transformed via tophat operation with large kernel (radius 30px) to eliminate non-uniformity of the background. Second tophat transform with small kernel (radius 5px) was used to enhance signal and eliminate local intensity variation around puncta. This image was then processed to find locations of puncta intensity peaks via non-maximal suppression filter with 3px radius of region considered in non-maximal suppression, and threshold 20. Finally the boundaries of puncta were identified using marker controlled watershed operation with peaks serving as foreground markers. After having identified each puncta, we used 8bit transformed but otherwise non-processed images to quantify intensity and area of each region. We focused on two endpoints, number of puncta per cell and integrated intensity of puncta per cell (sum of the products of average intensity and area of each puncta within a cell), both adjusted for cell area as described below. The boundaries of the cells were identified via Otsu's method, followed by hole filling and identification of the largest closely connected component. The area of the foreground was used as normalization factor to account for occasional differences in cell areas in the field of view. Specifically all foreground areas across experiment were pooled and divided by the median of the areas to obtain normalization factor for each image. This factor was then used for adjustment for number of puncta and integrated intensity of puncta, which scale with the number of cells. Puncta outside of cell boundaries were filtered out.
The results were aggregated over batches of cells recorded at the same time, with three or more batches per condition, approximately 20 cells per well. The statistical significance was tested via one-way ANOVA with treatment as a factor. To address the problem of severe inequality of variances across the treatment groups assessed via Bartlett′s test, we used square root transformation. All statistical results for the number of puncta per cell and integrated intensity of puncta per cell are presented for transformed variables. Significant ANOVA findings were followed with post-hoc comparisons with Dunnett′s procedure in case of comparisons with the control group or with false discover rate adjustment[69] otherwise. All statistical tests were performed two-tailed at a 5% level of significance.

Data set [2] has as its target human dopamine D1 receptor (hD1R) (Homo sapiens, UniProt P21728). As to the kind of experiment: hD1R cAMP HTRF assay (stable HEK293). As to conditions: percent of maximum response of 5 µM dopamine.
The target in the next data set is human D5R (Homo sapiens, UniProt P21918). As to the kind of experiment: Human D5R radioligand binding ([3H]-SCH23390, CHEM-1).
Sequence of human D5R (P21918 whole entry): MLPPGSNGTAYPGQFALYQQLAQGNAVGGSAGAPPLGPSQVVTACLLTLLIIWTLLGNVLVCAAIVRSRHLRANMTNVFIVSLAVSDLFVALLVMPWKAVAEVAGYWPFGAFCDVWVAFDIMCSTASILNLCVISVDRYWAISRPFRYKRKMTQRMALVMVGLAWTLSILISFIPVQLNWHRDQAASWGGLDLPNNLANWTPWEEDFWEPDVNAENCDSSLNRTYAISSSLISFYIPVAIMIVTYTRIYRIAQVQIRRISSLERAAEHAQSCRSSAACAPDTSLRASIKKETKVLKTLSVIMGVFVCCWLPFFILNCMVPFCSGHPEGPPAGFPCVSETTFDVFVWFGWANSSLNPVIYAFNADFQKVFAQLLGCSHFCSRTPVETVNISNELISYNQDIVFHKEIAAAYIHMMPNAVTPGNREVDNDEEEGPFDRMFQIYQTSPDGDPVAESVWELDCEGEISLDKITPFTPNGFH
In the next data set the target is human D2R (hD2R) (Homo sapiens, UniProt P14416). The experiment in a line: Human D2R radioligand binding ([3H]-spiperone, CHO).
Sequence of human D2R (hD2R) (P14416 whole entry): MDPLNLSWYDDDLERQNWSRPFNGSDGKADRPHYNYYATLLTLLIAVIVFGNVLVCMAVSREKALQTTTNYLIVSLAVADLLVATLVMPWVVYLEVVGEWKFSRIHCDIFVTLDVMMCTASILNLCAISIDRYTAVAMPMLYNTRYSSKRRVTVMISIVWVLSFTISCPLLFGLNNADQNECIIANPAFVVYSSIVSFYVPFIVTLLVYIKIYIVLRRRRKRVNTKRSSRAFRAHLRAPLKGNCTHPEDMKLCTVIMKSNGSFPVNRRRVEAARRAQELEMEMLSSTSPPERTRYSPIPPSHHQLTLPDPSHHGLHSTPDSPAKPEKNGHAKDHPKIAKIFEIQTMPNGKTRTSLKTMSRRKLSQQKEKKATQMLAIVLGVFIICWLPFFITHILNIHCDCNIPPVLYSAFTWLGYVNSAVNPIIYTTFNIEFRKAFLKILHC
A further data set deals with human D1R (Homo sapiens, UniProt P21728). The experiment in a line: Human D1R radioligand binding ([3H]-SCH23390, LTK cells).
Sequence of human D1R (P21728 whole entry): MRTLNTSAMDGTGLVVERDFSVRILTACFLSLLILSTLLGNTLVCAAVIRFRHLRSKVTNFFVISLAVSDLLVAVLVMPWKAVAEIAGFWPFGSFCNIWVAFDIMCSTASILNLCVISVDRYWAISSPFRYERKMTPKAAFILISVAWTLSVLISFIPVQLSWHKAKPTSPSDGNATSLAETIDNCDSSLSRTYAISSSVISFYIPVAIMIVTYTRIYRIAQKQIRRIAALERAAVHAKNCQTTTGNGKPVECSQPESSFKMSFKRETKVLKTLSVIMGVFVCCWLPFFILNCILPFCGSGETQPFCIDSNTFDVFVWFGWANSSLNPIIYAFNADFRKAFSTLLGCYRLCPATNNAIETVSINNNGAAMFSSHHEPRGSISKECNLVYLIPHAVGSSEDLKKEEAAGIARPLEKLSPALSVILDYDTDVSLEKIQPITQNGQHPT
Data set [3] has as its target human dopamine D5 receptor (hD5R) (Homo sapiens, UniProt P21918). As to the kind of experiment: hD5R cAMP HTRF assay (stable HEK293). The conditions noted are these: for Efficacy hD5R cAMP: percent of maximum response of 5 µM dopamine.
In another data set the test system is cynomolgus monkeys. The experiment in a line: Monkey spontaneous eye blink rate (EBR). It is filed as in vivo, Macaca fasicularis. As to conditions: monkey; data not shown. The method, then:
Increase in spontaneous EBR has been previously shown with D1 agonists and partial agonists. To confirm the specificity of the response in our particular assay set up for D1 activation, we verified that the D1 receptor antagonist SCH-39166 fully blocks the increased eye blink response of non-catechol full D1 agonist that is a close structural analog of the compounds in this paper (data not shown). All procedures involving animals were conducted with approval of the Pfizer Institutional Animal Care and Use Committee (Groton, CT) and compliant with the regulations and standards of the Animal Welfare Act (9CFR2, 9CFR3). Three male Cynomolgus macaques (Macaca fasicularis) of Mauritian origin, 7–10 years old, SPF for CHV-1, SIV, STLV1 and SRV 1, 2, 5 were used. Animals were exposed to 12 h light/dark cycle (lights on 6:00 AM – 6:00 PM). […] EBRS were recorded from chaired animals for 2 min at 10 min intervals by a trained observer through direct visual observation who was blinded to experimental conditions. Animals were chaired at approximately 7:30 AM. After vehicle or compound administration, eye blinks were recorded during the following intervals: from 10 to 50 min (0–1 h), 130 to 170 min (2–3 h), 310 to 350 min (5–6 h). Animals were returned to their home cages between two consecutive sessions and after the final recording of the day. Blood samples (1 ml) were collected from the femoral vein at 1 and 5 h after the first dose to quantitate plasma compound levels. […] A77636 was dissolved in 0.9% sterile saline, formulated fresh prior to administration, and given once per day for 3 days. […] Vehicle control was administered on day 0.
EBR data were first converted to blinks per minute. EBR were averaged by binning into 3 periods: Period 1 (0–1 h after the first dose) EBR = mean of 10, 20, 30, 40, and 50 min recordings; Period 2 (2–3 h after the first dose) EBR = mean of 130, 140, 150, 160, and 170 min recordings; Period 3 (5–6 h after the first dose) EBR = mean of 310, 320, 330, 340, and 350 min recordings. For Fig. 5c EBR data were averaged by binning data from periods 1 through 3 as daily EBR. Data from each animal was then normalized to their respective Day 1 EBR and expressed as percent of Day 1 EBR for each drug. EBR data were analyzed with SAS® 9.4 (SAS Institute Inc. Cary, NC) using a mixed linear model (Mixed Procedure) for repeated measures. The model included treatment, day, time period, and their interactions as fixed effects, and animal and animal-by-day interaction as random effects. A first order autoregressive model was used for longitudinal covariance structure. Differences between least squares means across days, overall and for each time period, were tested and adjusted for multiple comparisons via Tukey method. […]

Data set [4] is described as follows: Rat pharmacokinetic studies. It is filed as in vivo, Wistar Hannover rat. The method, then:
Rat pharmacokinetic studies were conducted at BioDuro, Pharmaceutical Product Development, Inc. (Shanghai, China). Wistar Hannover rats (227–293 gram weight) were obtained from Vital River Laboratories (China). All animal studies were conducted in accordance with the Pfizer Institutional Animal Care and Use Committee (Groton, CT), using protocols approved by Pfizer PDM′s Global BA Committee (2009). Jugular vein-cannulated male Wistar Hanover rats were maintained on a 12 h light/dark cycle for a minimum of three days in a temperature-controlled and humidity-controlled environment with free access to food and water. Individual animals (n = 2 or 3 per dose/route) were administered a single dose of compound by either intravenous injection via tail vein or oral gavage based on body weight. […] The PF-6142 intravenous dose (1 mg/kg) was formulated in saline acidified with three molar equivalents of 1 N hydrochloric acid and the PF-6142 oral dose (5 mg/kg) was formulated in 0.5% methylcellulose. […] Formulations were agitated until all of the test article was dissolved. […] From each rat, serial blood samples were collected via jugular vein cannula prior to dose administration and at the following time points post-dose: 0.033 (i.v. only), 0.083, 0.25, 0.5, 1, 2, 4, 7, and 24 h. […] All blood samples were placed on wet ice until centrifugation. Following centrifugation, the plasma was transferred to polypropylene tubes and stored frozen at either −20 °C to −80 °C until analysis. Urine was collected from all intravenous-dosed rats into collection tubes from the collection intervals of 0–7 h and 7–24 h post-dose. […] All urine samples were stored at −80 °C until analysis. All samples were processed for quantitation of compound concentrations using protein precipitation methodology followed by analysis using liquid chromatography-tandem mass spectrometry (LC-MS/MS). […] The pharmacokinetic parameters (including those in Supplementary Table 3) were computed by non-compartmental analysis[61] using Watson Bioanalytical LIMS version 7.4 (Thermo Fischer Scientific, CA).

In data set [5] the test system is D1R in rat striatal neurons. The experiment in a line: D1R desensitization in primary rat striatal neurons (cAMP after SKF-81297 challenge). It is filed as cell-based. As to conditions: rat striatal neurons pretreated 120 min with 10 μM agonist. The method, then: Striatal neurons were chosen for the desensitization studies because they express endogenous D1 receptors and are a physiologically relevant tissue for examining neurotransmitter receptor desensitization in vitro. […] Both hemispheres of the striatum were microdissected from the embryonic rat brains and placed into HBSS. All isolated tissue was combined and washed 1× with HBSS, followed by trypsinization using a 0.05% trypsin-EDTA solution for 15 min at 37 °C. […] The cell suspension was added to the top of 5 ml complete MEM media with 1 ml of 100% FBS serum at bottom of a 15 ml tube and centrifuged at 1450 rpm for 5 min. The […] and diluted 10-20× in complete MEM and cell density determined. Cells were plated at a density of 35,000 cells/well in poly-ornithine/laminin coated 96 well plates (Biocoat, BD Falcon) and cultured in Neurobasal media supplemented with B27, 1× Glutamax, and penicillin/streptomycin (100 U/mL) (all from Invitrogen) at 37 °C in 5% CO2 for 14-16 days prior to assay. […] After the pretreatment, cells were washed twice at 5 min intervals with 250 μl/well fresh Neurobasal media. […] The concentration of cAMP (nM) from treated wells was interpolated from a cAMP standard curve by non-linear regression least squares analysis using Graphpad Prism 5.02. […] The percent desensitization was calculated as the percent decrease in cAMP relative to vehicle control. Statistical differences were compared by a one-way ANOVA with Dunnett's post-test analysis using Graphpad Prism 5.02.

Sequence of human D3R (P35462 whole entry): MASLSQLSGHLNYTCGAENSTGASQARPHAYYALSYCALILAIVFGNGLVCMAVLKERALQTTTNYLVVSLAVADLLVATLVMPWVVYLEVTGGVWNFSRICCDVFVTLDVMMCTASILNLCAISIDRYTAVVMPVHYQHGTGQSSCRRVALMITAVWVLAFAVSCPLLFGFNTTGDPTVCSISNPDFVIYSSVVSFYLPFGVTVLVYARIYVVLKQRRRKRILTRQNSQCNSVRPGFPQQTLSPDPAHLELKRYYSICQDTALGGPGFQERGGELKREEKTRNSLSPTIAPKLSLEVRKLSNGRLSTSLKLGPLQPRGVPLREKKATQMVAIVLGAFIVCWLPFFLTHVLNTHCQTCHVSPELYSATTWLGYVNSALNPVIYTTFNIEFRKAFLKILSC
Sequence of human dopamine D5 receptor (hD5R) (P21918 whole entry): as the sequence (P21918 whole entry) above
Sequence of human dopamine D1 receptor (hD1R) (P21728 whole entry): as the sequence (P21728 whole entry) above
Method for human D2R (hD2R): (§1) Binding assays were performed using stably expressed human D1R LTK, HEK293 rat D1R (rD1R), CHO human D2R (hD2R), CHO human D3R, and Millipore CHEM-1 human D5R (HTS129M) cell lines or primary striatal tissue from cynomolgus monkey brain. […] These ligand and tissue concentrations were used in time course studies to determine linearity and equilibrium conditions for binding. Binding reached equilibrium with the specified amount of tissue by 30 min at 37 °C for hD1R, rD1R, mD1R, 20 min at 37 °C for D2R and D3R and 60 min at room temperature for D5R. […] Membrane radioligand levels were determined by liquid scintillation counting of the filter plates in 50 µl Ecolume. […] Ki values were calculated according to the Cheng-Prusoff equation.
Method for human D3R: as §1
Method for human D5R: as §1

For `Oc1cc2c(cc1O)[C@H]1c3ccccc3CN[C@@H]1CC2` (racemic) [Dihydrexidine, reference compound], at human D3R, the Ki was 0.387 ± 0.021 µM. The “β-arrestin-GFP recruitment to the plasma membrane (TIRFM)” value (“β-arrestin-GFP recruitment” below) in data set [1] was “significantly higher signal”. Moreover, the “Efficacy hD1R cAMP” value in [2] is 100±2.

As to `NCCc1ccc(O)c(O)c1` [Dopamine, reference compound], in data set [1], the “β-arrestin-GFP recruitment” value was “membrane associated β-arrestin puncta appeared rapidly; also recorded: significantly higher signal”.

Consider `Cn1nccc1-c1ccc(Oc2nccc3occc23)cc1` [PF-4211], for which the inhibition constant (Ki) at human D3R is greater than 0.671 µM; at human D5R, 1.89 ± 0.508 µM; on human D2R (hD2R) it was greater than 4.28 µM; on human D1R it was 3.14 ± 0.335 µM. In data set [3], this molecule registered a concentration for a half-maximal effect (EC50) of 1.78 ± 0.144 µM. Also, the “Efficacy hD5R cAMP” value in [3] is given as 53±1.

For the molecule `CN1CCc2cc(Cl)c(O)cc2[C@H]2c3ccccc3CC[C@@H]21` [SCH-39166], the “blockade of EBR increase induced by a non-catechol full D1 agonist” value with cynomolgus monkeys is “fully blocks”.

The molecule `Oc1cc2c(cc1O)C(c1ccccc1)CNCC2` (stereo not shown) [SKF-38393, reference compound] gave a Ki at human D3R greater than 0.671 µM. Moreover, the “Efficacy hD1R cAMP” value in [2] is recorded as 41±3. Also, the CL entry in [4] (intravenous (1 mg/kg; PF-2334 0.1 mg/kg)) is listed as “rapid clearance”. The molecule further returned a clearance in data set [4] (male, Wistar Hannover, plasma, iv) of 245 mL/min/kg. Moreover, the Vd in data set [4] (male, Wistar Hannover, plasma, iv, read-out: Vdss) turned out to be 3.9 L/kg. In data set [4] (male, Wistar Hannover, plasma, oral bioavailability), this molecule yielded a bioavailability of 9.5%. Moreover, in data set [4] (male, Wistar Hannover, plasma, read-out: t½ (converted)), the half-life was 24 min. The F entry in data set [4] (oral bioavailability) is “low oral bioavailability”. In data set [5], the “percent desensitization of D1R cAMP response to 1 μM SKF-81297 challenge” value is 40–60%.

With `Oc1cc2c(c(Cl)c1O)CCNCC2c1ccccc1` (stereo not shown) [SKF-81297, reference compound], in [1], the “β-arrestin-GFP recruitment” value is “membrane associated β-arrestin puncta appeared rapidly”. The “Efficacy hD5R cAMP” value in data set [3] came to 100±1.
